Test: microbiological proof of ciprofloxacin bioactivity after manufacturing and during in vitro drug release tests
Conditions: microbiologically proved

In the case of `O=C(O)c1cn(C2CC2)c2cc(N3CCNCC3)c(F)cc2c1=O` [Ciprofloxacin, ciprofloxacin], the “bioactivity of ciprofloxacin after manufacturing and during the in vitro drug release tests” value (Example 1, P(L/DL)LA composite) was “bioactive” and the “bioactivity of ciprofloxacin after manufacturing and during the in vitro drug release tests” value (Example 2, PLGA composite) was “bioactive”.

Source: patent US20060121082A1, “Method to enhance drug release from a drug-releasing material” (priority 2004, published 2006)
